Assay [1] relates to NCI-H292 lung cancer cells. Kind of assay: FDA drug screening, complete media vs cholesterol-free media with simvastatin (TABLE 2). The class given is cell-based, human.
Assay [2] has as its system NCI-H292 lung cancer cells. As to the kind of experiment: FDA drug screening, complete media vs cholesterol-free media without statin (TABLE 1). It counts as cell-based, human.
Where [3] appears, read: NCI-H292 cells, cholesterol-free media with simvastatin 0.04 μM, FDA drug library screen (TABLE 2).
The mark [4] stands for this setting: NCI-H292 cells, complete media, FDA drug library screen (TABLE 2).
[5] abbreviates: complete media minus cholesterol-free media + simvastatin (0.04 μM), >0 enhanced anti-cancer activity, about 0 neutral, <0 antagonist.
Setting [6] is: NCI-H292 cells, cholesterol-free media without statin, FDA drug library screen.
Where [7] appears, read: NCI-H292 cells, complete media, FDA drug library screen.
The mark [8] stands for this setting: complete vs cholesterol-free media, >0 enhanced anti-cancer activity, about 0 neutral, <0 antagonist.
Setting [9] is: NCI-H292 cells, FDA library drug in cholesterol-free media with simvastatin 0.04 μM.
Setting [10] is: NCI-H292 cells, FDA library drug in complete media.
The mark [11] stands for this setting: complete media vs cholesterol-free media + simvastatin (0.04 μM), >0 enhanced anti-cancer activity, about 0 neutral, <0 antagonist.
Setting [12] is: NCI-H292 cells, cholesterol-free media without statin.
Setting [13] is: complete vs cholesterol-free media, greater than 0 enhanced anti-cancer activity, about 0 neutral, below 0 antagonists.
The mark [14] stands for this setting: NCI-H292 cells, FDA drug library screen, cholesterol-free media with simvastatin 0.04 μM.
[15] abbreviates: Complete minus Cholesterol-free, greater than 0 enhanced anti-cancer activity, about 0 neutral, below 0 antagonist.
[16] abbreviates: NCI-H292 cells, FDA drug library screen, cholesterol-free media without statin.
The mark [17] stands for this setting: NCI-H292 cells, FDA drug library screen, complete media.
Where [18] appears, read: NCI-H292 cells, cholesterol-free media with simvastatin 0.04 μM, cell growth value in FDA drug screen.
The mark [19] stands for this setting: NCI-H292 cells, complete media, cell growth value in FDA drug screen.
[20] abbreviates: complete media minus cholesterol-free media + simvastatin, >0 enhanced anti-cancer activity, about 0 neutral, <0 antagonist.
Setting [21] is: Complete minus Cholesterol-free, >0 enhanced anti-cancer activity, about 0 neutral, <0 antagonist.
Setting [22] is: complete media vs cholesterol-free media + simvastatin (0.04 μM), […].
The mark [23] stands for this setting: Complete minus Cholesterol-free, […].
The mark [24] stands for this setting: NCI-H292 cells, drug in cholesterol-free media with simvastatin 0.04 μM.
Setting [25] is: NCI-H292 cells, drug in complete media.

Where a name gives a salt, the structure may show the parent alone. Read-outs that look alike come from different tables or passages of the source.

On to `CC[C@]12CCCN3CCc4c(n(c5ccccc45)[C@@](O)(C(=O)OC)C1)[C@@H]32` [Vincamine], for which the “Cholesterol-free media + simvastatin (0.04 μM)” value in assay [1] (setting [3]) came to 0.8199. The “Complete Media” value in assay [1] (setting [4]) stood at 0.7686. The Difference in assay [1] (setting [5]) was −0.05; in assay [2] (setting [8]) it was 0.49. Besides, the Cholesterol-free in assay [2] (setting [6]) came out at 0.6922. The compound also came in with a Complete in assay [2] (setting [7]) of 1.178.

Take `CC1CCC(C(C)C)C(O)C1` (single isomer, unassigned; (-)) [(−)-Menthol]: the “Cholesterol-free media + simvastatin (0.04 μM)” value in assay [1] (setting [9]) came out at 1.223. The “Complete Media” value in assay [1] (setting [10]) is listed as 0.8866. The Difference in assay [1] (setting [11]) is recorded as −0.34; in assay [2] (setting [13]), −0.32. Moreover, the Cholesterol-free in assay [2] (setting [12]) was 1.434. In assay [2] (NCI-H292 cells, complete media), this compound registered a Complete of 1.115.

For `C=CCc1ccccc1OCC(O)CNC(C)C` (stereo not shown) [Alprenolol (hydrochloride)], the “Cholesterol-free media + simvastatin (0.04 μM)” value in assay [1] (setting [14]) was 1.228. Further, the Difference in assay [1] (setting [11]) is on record as −0.08; in assay [2] (setting [15]), −0.15. This compound yielded a Cholesterol-free in assay [2] (setting [16]) of 1.198. In assay [2] (setting [17]), the Complete is reported as 1.044.

Turning to `CO[C@H]1C[C@@H]2CC[C@@H](C)[C@@](O)(O2)C(=O)C(=O)N2CCCC[C@H]2C(=O)O[C@H]([C@H](C)C[C@@H]2CC[C@@H](OC(=O)C(C)(CO)CO)[C@H](OC)C2)CC(=O)[C@H](C)/C=C(\C)[C@@H](O)[C@@H](OC)C(=O)[C@H](C)C[C@H](C)/C=C/C=C/C=C/1C` [Temsirolimus], the “Cholesterol-free media + simvastatin (0.04 μM)” value in assay [1] (setting [18]) turned out to be 0.4472. For the same compound, in assay [1] (setting [19]), the “Complete Media” value is recorded as 0.5571. Further, the Difference is 0.11 in assay [1] (setting [20]) and −0.06 in assay [2] (setting [21]). In assay [2] (setting [6]), this compound registered a Cholesterol-free of 0.4176. Besides, the Complete in assay [2] (setting [7]) is on record as 0.3544.

For the compound `COCCOC(=O)C1=C(C)NC(C)=C(C(=O)OC(C)C)C1c1cccc([N+](=O)[O-])c1` (stereo not shown) [Nimodipine], the “Cholesterol-free media + simvastatin (0.04 μM)” value in assay [1] (setting [3]) is given as 1.215. For the same compound, the “Complete Media” value in assay [1] (setting [4]) is listed as 1.187. Besides, the Difference in assay [1] (setting [5]) was −0.03; in assay [2] (setting [13]), −0.38. Further, in assay [2] (setting [12]), the Cholesterol-free came out at 1.269. Further, the Complete in assay [2] (NCI-H292 cells, complete media) was 0.8907.

On to `Cn1c(=O)c2[nH]cnc2n(C)c1=O` [Aminophylline], for which the “Cholesterol-free media + simvastatin (0.04 μM)” value in assay [1] (setting [3]) was 0.918. Further, in assay [1] (setting [4]), the “Complete Media” value is on record as 0.8588. Further, the Difference is given as −0.06 in assay [1] (setting [5]) and −0.14 in assay [2] (setting [15]). Moreover, the Cholesterol-free in assay [2] (setting [16]) came to 0.9006. Moreover, in assay [2] (setting [17]), the Complete is reported as 0.7581.

On to `CCCCCCCCCCCC1=C(O)C(=O)C=C(O)C1=O` [Embelin], for which the “Cholesterol-free media + simvastatin (0.04 μM)” value in assay [1] (setting [3]) amounted to 0.8998. In addition, the “Complete Media” value in assay [1] (setting [4]) was 0.8298. Besides, the Difference in assay [1] (setting [5]) is −0.07; in assay [2] (Complete minus Cholesterol-free, greater than 0 enhanced anti-cancer activity, about 0 neutral, below 0 antagonists), −0.48. For the same compound, the Cholesterol-free in assay [2] (NCI-H292 cells in cholesterol-free media without statin) is recorded as 1.567. This compound gave a Complete in assay [2] (NCI-H292 cells in complete media) of 1.082.

Regarding Osimertinib (dimesylate), the “Cholesterol-free media + simvastatin (0.04 μM)” value in assay [1] (setting [14]) came out at 0.4427. Besides, the “Complete Media” value in assay [1] (setting [17]) is 0.3618. For the same compound, the Difference in assay [1] (setting [22]) was −0.08; in assay [2] (setting [23]), −0.05. The Cholesterol-free in assay [2] (setting [6]) was 0.1916. This compound also returned a Complete in assay [2] (setting [7]) of 0.1371.

Take `O=C(O)COCCN1CCN([C@H](c2ccccc2)c2ccc(Cl)cc2)CC1` [Levocetirizine (dihydrochloride)]: the “Cholesterol-free media + simvastatin (0.04 μM)” value in assay [1] (setting [24]) is recorded as 1.115. In assay [1] (setting [25]), the “Complete Media” value is given as 0.8515. The Difference is −0.26 in assay [1] (setting [11]) and 0.02 in assay [2] (setting [21]). The compound also had a Cholesterol-free in assay [2] (setting [6]) of 0.8691. Moreover, in assay [2] (setting [7]), the Complete turned out to be 0.8901.

Consider Ruxolitinib (phosphate), for which the “Cholesterol-free media + simvastatin (0.04 μM)” value in assay [1] (setting [24]) is on record as 0.8715. Also, the “Complete Media” value in assay [1] (setting [25]) stood at 0.6795. The results for the Difference in assay [1] (setting [11]) and in assay [2] (setting [21]) were −0.19 and −0.04, respectively. The same compound returned a Cholesterol-free in assay [2] (setting [6]) of 0.6764. The Complete in assay [2] (setting [7]) is 0.6315.

For `NCCC[C@H](NC(=O)[C@@H]1CCCN1C(=O)[C@@H]1CSSC[C@H](N)C(=O)N[C@@H](Cc2ccc(O)cc2)C(=O)N[C@@H](Cc2ccccc2)C(=O)N[C@@H](CCC(N)=O)C(=O)N[C@@H](CC(N)=O)C(=O)N1)C(=O)NCC(N)=O` [Ornipressin], the “Cholesterol-free media + simvastatin (0.04 μM)” value in assay [1] (setting [9]) was determined as 1.553. For the same compound, in assay [1] (setting [10]), the “Complete Media” value was 0.7895. The Difference in assay [1] (setting [22]) is recorded as −0.76; in assay [2] (setting [23]) it was 0.03. In assay [2] (setting [6]), this compound came in with a Cholesterol-free of 1.024. The compound also came in with a Complete in assay [2] (setting [7]) of 1.051.

As to `CCc1c2c(nc3ccc(OC(=O)N4CCC(N5CCCCC5)CC4)cc13)-c1cc3c(c(=O)n1C2)COC(=O)[C@]3(O)CC` [Irinotecan], the “Cholesterol-free media + simvastatin (0.04 μM)” value in assay [1] (setting [9]) came to 0.729. Further, the “Complete Media” value in assay [1] (setting [10]) stood at 0.3631. Further, the Difference is given as −0.37 in assay [1] (setting [11]) and −0.08 in assay [2] (setting [15]). In assay [2] (setting [16]), this compound yielded a Cholesterol-free of 0.2676. Besides, the Complete in assay [2] (setting [17]) was 0.1842.

Consider `COC(=O)c1ccccc1O` [Methyl Salicylate], for which the “Cholesterol-free media + simvastatin (0.04 μM)” value in assay [1] (setting [18]) came out at 0.8236. Further, the “Complete Media” value in assay [1] (setting [19]) came out at 0.8959. For the same compound, the values for the Difference in assay [1] (setting [20]) and in assay [2] (setting [21]) were 0.07 and −0.24, respectively. This compound also returned a Cholesterol-free in assay [2] (setting [12]) of 0.9648. For the same compound, in assay [2] (NCI-H292 cells, complete media), the Complete came out at 0.722.

On to `Cn1c(=O)c2[nH]cnc2n(C)c1=O` [Choline theophyllinate], for which, in assay [1] (setting [14]), the “Cholesterol-free media + simvastatin (0.04 μM)” value came to 1.275. The Difference is on record as −0.10 in assay [1] (setting [11]) and −0.20 in assay [2] (setting [21]). This compound had a Cholesterol-free in assay [2] (setting [12]) of 1.108. In assay [2] (NCI-H292 cells, complete media), this compound yielded a Complete of 0.9038.

In the case of `CCN[C@@H]1C[C@H](N)[C@@H](O[C@H]2OC(CN)=CC[C@H]2N)[C@H](O)[C@H]1O[C@H]1OC[C@](C)(O)[C@H](NC)[C@H]1O.CCN[C@@H]1C[C@H](N)[C@@H](O[C@H]2OC(CN)=CC[C@H]2N)[C@H](O)[C@H]1O[C@H]1OC[C@](C)(O)[C@H](NC)[C@H]1O.O=S(=O)(O)O.O=S(=O)(O)O.O=S(=O)(O)O.O=S(=O)(O)O.O=S(=O)(O)O` [Netilmicin (sulfate)], the “Cholesterol-free media + simvastatin (0.04 μM)” value in assay [1] (setting [14]) came to 1.19. The “Complete Media” value in assay [1] (setting [17]) is given as 1.538. For the same compound, the Difference is given as 0.35 in assay [1] (setting [20]) and −0.35 in assay [2] (setting [13]). The same compound registered a Cholesterol-free in assay [2] (setting [12]) of 1.778. The compound also registered a Complete in assay [2] (NCI-H292 cells, complete media) of 1.428.

Turning to `Cc1ccc(O)c([C@H](CCN(C(C)C)C(C)C)c2ccccc2)c1` [Tolterodine], in assay [1], the “Cholesterol-free media + simvastatin (0.04 μM)” value is 1.169, the “Complete Media” value is on record as 0.8561 and the Difference was −0.31. Further, in assay [2], the Cholesterol-free was found to be 0.9758, the Complete turned out to be 1.051 and the Difference came to 0.08.

On to `COc1c(OCCCN2CCOCC2)ccc2c1N=C(NC(=O)c1cnc(N)nc1)N1CCN=C21` [Copanlisib (dihydrochloride)], for which the “Cholesterol-free media + simvastatin (0.04 μM)” value in assay [1] (setting [18]) is 0.2902. Besides, the “Complete Media” value in assay [1] (setting [19]) turned out to be 0.3694. Besides, the Difference in assay [1] (setting [20]) is listed as 0.08; in assay [2] (setting [21]) it was 0.02. The compound also gave a Cholesterol-free in assay [2] (setting [6]) of 0.07316. In addition, in assay [2] (setting [7]), the Complete is on record as 0.09563.

In the case of `NC(=O)CC[C@H](N)C(=O)O` [L-Glutamine], the “Cholesterol-free media + simvastatin (0.04 μM)” value in assay [1] (setting [3]) is recorded as 0.8178. Further, in assay [1] (setting [4]), the “Complete Media” value was determined as 0.7954. Further, the results for the Difference in assay [1] (setting [5]) and in assay [2] (setting [8]) were −0.02 and 0.50, respectively. In assay [2] (setting [6]), this compound came in with a Cholesterol-free of 1.026. Further, the Complete in assay [2] (setting [7]) is given as 1.522.

The record behind these values is patent US20250144067A1, “PERSONALIZED STARVATION THERAPY FOR CANCER” (Faeth Therapeutics, Inc., priority 2021, published 2025).
